According to patent US9284283B2, “Macrocyclic compounds for modulating IL-17” (ENSEMBLE THERAPEUTICS CORPORATION, priority 2012, dated 2016):

Key:
[1] = molecular target: T1, recombinant human IL17a (binding to its receptor IL17R) (Homo sapiens, UniProt Q16552); assay: IL-17 competition ELISA I (IL17a coated, IL17R/Fc binding)
T1 construct: purchased R&D Systems 317-ILB (IL17a); 177-IR (IL17R/Fc)
T1 sequence (Q16552 20-155 limits assumed): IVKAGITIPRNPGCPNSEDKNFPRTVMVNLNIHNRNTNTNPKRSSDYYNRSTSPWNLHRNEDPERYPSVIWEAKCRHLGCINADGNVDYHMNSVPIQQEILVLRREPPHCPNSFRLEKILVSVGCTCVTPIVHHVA
Outline: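 Plates coated with 20 nM recombinant human IL17a received compound dilutions and 12 nM IL17R/Fc (final) for 30 min at room temperature. Bound receptor was detected with HRP anti-human Fc and TMB, read at 450 nm. IC50 came from a 4-parameter logistic fit between no-competitor and blank controls.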

IL17A = molecular target: T2, IL17A (Homo sapiens, UniProt Q16552); assay: Surface Plasmon Resonance (SPR) analysis of compound interactions with IL17A; details: SPR binding to IL17A
T2 sequence (Q16552 24-155): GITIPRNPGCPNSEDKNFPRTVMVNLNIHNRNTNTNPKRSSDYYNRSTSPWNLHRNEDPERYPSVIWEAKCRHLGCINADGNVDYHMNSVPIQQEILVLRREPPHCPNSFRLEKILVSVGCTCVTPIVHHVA
Protocol: SPR analysis was carried out with a GE Healthcare (Piscataway, N.J.) Biacore X100 system. Typically, the chip (NTA Biacore Biosensor chip; GE Healthcare BR-1000-34) was first conditioned by injection of 0.35 M EDTA, which also served to remove any immobilized proteins from previous runs. Before immobilization of the recombinant 6-His-tagged IL17, the chip was washed with 0.5 mM nickel chloride in NTA buffer (10 mM HEPES buffer, 0.15 M sodium chloride, 10 μM ethylene diamine tetraacetic acid, 0.005% v/v surfactant P20 (GE Healthcare BR-1000-54)) to form a nickel chelate on the chip. IL17 protein was immobilized onto a NTA chip through its 6-His tag. IL17A was typically injected at 0.25 μM for 60-120 seconds, followed by a stabilization step washing with NTA+0.5% DMSO for 120 seconds or longer.
Five 2-fold or 3-fold serial dilutions of test compound were injected serially onto the chip. All steps were conducted using NTA buffer containing 0.5% v/v dimethylsulfoxide (DMSO). Compounds were diluted from stock solutions of 10 mM concentration in 100% DMSO with NTA buffer to obtain 50 μM solutions in NTA+0.5% DMSO. Subsequent 2× or 3× dilutions were made in NTA+0.5% DMSO. Compound was generally injected for 180 seconds followed by washing the chip in buffer alone for 120 seconds. The rate of refractive index change (RU units/time) and the maximum extend of RU change was measured during the “on” phase of analyte injection, followed by measuring the rate during the “off” phase.
Kinetic parameter fits were conducted using the Biacore SPR Evaluation Program (GE Healthcare) for 1:1 molecular binding fits, after subtracting the baseline average of 2 or more runs in which no analyte was injected. This program then reports the best fit average for the “on” rate (Ka), the “off” rate (Kd) and the dissociation constant (KD) (Chaiken, I et al., Anal Biochem 201, 197-210 (1992)). A separate program in the Biacore SPR Evaluation Program then calculates the best fit for Kd based upon the extent of binding alone (RU units bound) at each concentration of analyte and reports the best fit Kd by best fit to a Lineweaver-Burke plot. Typically, the Kd value calculated through both means agreed within a factor of three.
The presence and activity of IL17 on the NTA chip was routinely confirmed three ways: • 1) An increase in response units (RU) upon immobilization confirms that the IL17 was immobilized on the chip; • 2) Anti-IL17 was also injected on the chip to confirm the presence of IL17; and • 3) IL17R was injected onto the chip to confirm that the immobilized IL17 retained its binding activity for its receptor. Negative controls to access specificity for compound binding were conducted by immobilizing unrelated, but his-tagged, proteins (such as cyclophilin D) and conducting the same analysis as done with IL17A.

[2] = tested on: IL-17A induced secretion of IL-6 in primary human RASF cells; assay: Inhibition of IL17A induced secretion of IL6 in human rheumatoid arthritis synovial fibroblast (RASF) cells; format: cell-based; details: Homo sapiens, Fibroblast
Outline: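 Primary RASF cells (passage 2-8) stimulated 20 h at 37 °C with rhIL-17A (30 ng/mL) pre-incubated 1 h with compound (final 0.03-25 μM, 0.25% DMSO). Supernatant IL-6 measured by ELISA, normalized to WST1 viability; triplicates.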

[3] = molecular target: T3, biotinylated human IL-17 (binding to IL17R/Fc) (Homo sapiens, UniProt Q16552); assay: IL-17 competition ELISA II (captured IL17R/Fc, biotinylated IL-17)
T3 construct: purchased R&D Systems 317-ILB (IL-17, biotinylated); 177-IR (IL17R/Fc)
T3 sequence (Q16552 20-155 limits assumed): T1 sequence (Q16552 20-155 limits assumed)
Outline: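 Competition read-out: absorbance at 450 nm after streptavidin-HRP/TMB detection, fitted to a 4-parameter logistic model bounded by no-competitor and blank wells to give IC50. Compound was serially diluted 5-fold from 1 μM alongside 20 nM (stock) biotinylated IL-17 on IL17R/Fc (10 nM) captured via goat anti-human IgG, 30 min at room temperature.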

Structure (SMILES) | IC50 [1] [nM] | Kd (IL17A) [nM] | IC50 [2] [µM] | IC50 [3] [nM]
CC(=O)N[C@@H](Cc1ccccc1Cl)C(=O)Nc1ccc(C[C@H]2NC(=O)CC3(CCCC3)CC(=O)NCCCCCNC(=O)CNC2=O)cc1 [Compound 153] | < 100 | < 100 | 1 to 10 | 
O=C1CNC(=O)[C@@H](Cc2ccc(NC(=O)[C@H](Cc3ccccc3Cl)NC(=O)Cc3ccccc3)cc2)NC(=O)CC2(CCCC2)CC(=O)NCCOCCN1 [Compound 209] | < 100 | < 100 | 1 to 10 | 
O=C1CNC(=O)[C@@H](Cc2ccc(NC(=O)[C@H](Cc3ccccc3Cl)NC(=O)c3cccc(O)c3)cc2)NC(=O)CC2(CCCC2)CC(=O)NCCCCCN1 [Compound 214] | < 100 | < 100 |  | 
O=C1CCCNC(=O)[C@@H](Cc2ccc(NC(=O)[C@H](Cc3ccccc3Cl)NC(=O)Cc3ccccc3)cc2)NC(=O)CC2(CCCC2)CC(=O)NCCCN1 [Compound 158] | < 100 | < 100 |  | 
O=C1CCNC(=O)[C@@H](Cc2ccc(NC(=O)[C@H](Cc3ccccc3Cl)NC(=O)Cc3ccccc3)cc2)NC(=O)CC2(CCCC2)CC(=O)NCCCCN1 [Compound 164] | < 100 | < 100 |  | 
O=C1CNC(=O)[C@@H](Cc2ccc(NC(=O)[C@H](Cc3cscn3)NC(=O)Cc3ccccc3)cc2)NC(=O)CC2(CCCC2)CC(=O)NCCCCCN1 [Compound 232] | 1000 to 10000 | 100 to 1000 |  | 
O=C1CNC(=O)[C@@H](Cc2ccc(NC(=O)[C@H](Cc3ccc(O)cc3)NC(=O)Cc3ccccc3)cc2)NC(=O)CC2(CCCC2)CC(=O)NCCCCCN1 [Compound 183] | 1000 to 10000 | 100 to 1000 |  | 
O=C1CNC(=O)[C@@H](Cc2ccc(NC(=O)[C@H](Cc3ccccc3Cl)NC(=O)c3ccccc3F)cc2)NC(=O)CC2(CCCC2)CC(=O)NCCCCCN1 [Compound 203] | < 100 | < 100 |  | 
O=C1CNC(=O)[C@@H](Cc2ccc(NC(=O)[C@H](Cc3ccccc3Cl)NC(=O)c3ccccn3)cc2)NC(=O)CC2(CCCC2)CC(=O)NCCCCCN1 [Compound 195] | 100 to 1000 | 100 to 1000 |  | < 100
O=C1CNC(=O)[C@@H](Cc2ccc(NC(=O)[C@H](Cc3ccccc3Cl)NC(=O)c3cnccn3)cc2)NC(=O)CC2(CCCC2)CC(=O)NCCCCCN1 [Compound 200] | 100 to 1000 | 100 to 1000 |  | 
O=C1CNC(=O)[C@@H](Cc2ccc(NC(=O)[C@H](Cc3cccs3)NC(=O)Cc3ccccc3)cc2)NC(=O)CC2(CCCC2)CC(=O)NCCCCCN1 [Compound 228] | < 100 | < 100 |  | 
O=C1CNC(=O)[C@@H](Cc2ccc(NC(=O)[C@H](Cc3ccccc3Cl)NC(=O)C3CCCCC3)cc2)NC(=O)CC2(CCCC2)CC(=O)NCCCCCN1 [Compound 207] | 100 to 1000 | < 100 |  | 
O=C1CNC(=O)[C@@H](Cc2ccc(NC(=O)[C@H](Cc3ccccc3Cl)NC(=O)Cc3ccccc3)cc2)NC(=O)CC2(CCCC2)CC(=O)N(CCO)CCCCCN1 [Compound 168] |  | < 100 | 1 to 10 | 
O=C1CNC(=O)[C@@H](Cc2ccc(NC(=O)[C@H](Cc3ccccc3Cl)NC(=O)Cc3ccncc3)cc2)NC(=O)CC2(CCCC2)CC(=O)NCCCCCN1 [Compound 202] | < 100 | < 100 |  | 
O=C1CNC(=O)[C@@H](Cc2ccc(NC(=O)[C@H](Cc3ccc(Br)s3)NC(=O)Cc3ccccc3)cc2)NC(=O)CC2(CCCC2)CC(=O)OCCCCCN1 [Compound 225] | 1000 to 10000 | 100 to 1000 |  | 
O=C1CNC(=O)[C@@H](Cc2ccc(NC(=O)[C@H](Cc3ccccc3Cl)NC(=O)c3ccc(Cl)cc3)cc2)NC(=O)CC2(CCCC2)CC(=O)NCCCCCN1 [Compound 205] | < 100 | < 100 |  | 
CN1CC(=O)NCCCCCNC(=O)CC2(CCCC2)CC(=O)N[C@H](Cc2ccc(NC(=O)[C@H](Cc3ccccc3Cl)NC(=O)Cc3ccc(O)cc3)cc2)C1=O [Compound 193] | 100 to 1000 | < 100 |  | 
O=C1CNC(=O)[C@@H](Cc2ccc(NC(=O)[C@H](Cc3ccco3)NC(=O)Cc3ccccc3)cc2)NC(=O)CC2(CCCC2)CC(=O)NCCCCCN1 [Compound 230] | < 100 | < 100 |  | 
